Laboratory results reported in patent publication US7737155B2, “Nitrogen-containing heterocyclic compounds and methods of use thereof” (Schering Corporation, priority 2005, dated 2010).

Biological target: recombinant human nicotinic acid receptor (NAR) (Homo sapiens, UniProt Q8TDS4)
Experiment: Nicotinic Acid Receptor Assay: inhibition of forskolin-stimulated cAMP accumulation in CHO cells (MesoScale Discovery cAMP kit)
Assay type: cell-based
Settings: CHO cells expressing recombinant human NAR; forskolin-stimulated cAMP; read-out: NA EC50 camp
Summary of the method: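 Compounds were diluted in PBS containing 6 μM forskolin and incubated with cells for 30 min at room temperature. cAMP was quantified by the MesoScale kit against an on-plate standard curve.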

recombinant human nicotinic acid receptor (NAR), sequence (Q8TDS4 whole entry): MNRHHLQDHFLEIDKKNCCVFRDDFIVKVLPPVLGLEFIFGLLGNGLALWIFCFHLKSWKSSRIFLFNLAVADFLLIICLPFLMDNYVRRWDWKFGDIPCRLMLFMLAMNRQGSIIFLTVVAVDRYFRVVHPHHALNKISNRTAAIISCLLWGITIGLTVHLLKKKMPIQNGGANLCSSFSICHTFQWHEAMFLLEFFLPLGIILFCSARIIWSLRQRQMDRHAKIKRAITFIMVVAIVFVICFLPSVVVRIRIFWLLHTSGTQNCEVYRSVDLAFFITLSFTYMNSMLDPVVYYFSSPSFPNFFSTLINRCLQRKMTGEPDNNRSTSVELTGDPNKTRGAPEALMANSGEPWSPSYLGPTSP

Row | Compound | EC50 [nM]
1 | CCc1cc(=O)oc2nc(OCc3ccc(C(F)(F)F)cn3)[nH]c(=O)c12 [Compound 545] | 100 to 1000
2 | CCCCc1cc(=O)oc2[nH]c(=O)n(CC3CC3)c(=O)c12 [Compound 258] | 100 to 1000
3 | O=c1[nH]c(=O)c2c(CC3CCNC3)cc(=O)oc2[nH]1 (stereo not drawn) [Compound 244] | > 1000
4 | CCc1cc(=O)oc2nc(OCCOc3ccccc3)[nH]c(=O)c12 [Compound 525] | 100 to 1000
5 | O=c1cc(CCCc2cccs2)c2c(=O)n(CC3CC3)c(=O)[nH]c2o1 [Compound 256] | > 1000
6 | CCc1cc(=O)oc2nc(OCCc3cccc4ccccc34)[nH]c(=O)c12 [Compound 537] | > 1000
7 | CCc1cc(=O)oc2nc(OCc3ccc(Br)cn3)[nH]c(=O)c12 [Compound 536] | 100 to 1000
8 | O=c1cc(CCCC2CC2)c2c(=O)n(C3CCC3)c(=O)[nH]c2o1 [Compound 224] | 0.001 to 100
9 | CCc1cc(=O)oc2nc(OCc3csc(-c4cccs4)n3)[nH]c(=O)c12 [Compound 541] | 100 to 1000
10 | CCc1cc(=O)oc2nc(OCc3ccncc3F)[nH]c(=O)c12 [Compound 625] | 100 to 1000
11 | CCc1cc(=O)oc2nc(OCc3ccc(-c4cccc(C(F)(F)F)c4)cc3F)[nH]c(=O)c12 [Compound 573] | 100 to 1000
12 | CCc1cc(=O)oc2nc(OCc3cccc(C(F)(F)F)n3)[nH]c(=O)c12 [Compound 568] | 100 to 1000
13 | CCOC(=O)COc1nc2oc(=O)cc(CC)c2c(=O)[nH]1 [Compound 519] | > 1000
14 | CC1(CCc2cc(=O)oc3[nH]c(=O)[nH]c(=O)c23)CC1 [Compound 272] | 100 to 1000
15 | CCc1cc(=O)oc2nc(OCc3ccc(C)c(C(F)(F)F)c3)[nH]c(=O)c12 [Compound 516] | > 1000
16 | COC(=O)CCc1cc(=O)oc2[nH]c(=O)[nH]c(=O)c12 [Compound 216] | 100 to 1000
17 | O=C(OCc1ccccc1)N1CCC(CCc2cc(=O)oc3[nH]c(=O)[nH]c(=O)c23)CC1 [Compound 234] | > 1000
18 | CCc1cc(=O)oc2nc(OCc3ccc(-c4ccccn4)s3)[nH]c(=O)c12 [Compound 648] | 100 to 1000
19 | O=c1cc(Cc2ccccc2)c2c(=O)[nH]c(OCc3ccccc3)nc2o1 [Compound 627] | > 1000
20 | CCc1cc(=O)oc2nc(OCc3ccc(C)cc3C)[nH]c(=O)c12 [Compound 504] | 100 to 1000
21 | CCc1cc(=O)oc2nc(OCc3cccc(OC)n3)[nH]c(=O)c12 [Compound 544] | 100 to 1000
22 | CCc1cc(=O)oc2nc(OCc3ccccc3-n3cncn3)[nH]c(=O)c12 [Compound 571] | 100 to 1000
23 | CCc1cc(=O)oc2nc(OCC3=Cc4ccccc4S3(=O)=O)[nH]c(=O)c12 [Compound 604] | 100 to 1000

Row | Compound | EC50 [nM]
24 | CCc1cc(=O)oc2nc(OCCCSC)[nH]c(=O)c12 [Compound 642] | 100 to 1000
25 | CCc1cc(=O)oc2nc(OCc3cc(Cl)cc(Cl)c3)[nH]c(=O)c12 [Compound 503] | 100 to 1000
26 | CCn1c(=O)[nH]c(=O)c2c(C)cc(=O)oc21 [Compound 291] | > 1000
27 | CC/C=C\CCc1cc(=O)oc2c1c(=O)[nH]c(=O)n2CC1CC1 [Compound 253] | > 1000
28 | CCc1cc(=O)oc2nc(OCc3cccc(-c4ccc(OC)c(OC)c4)c3)[nH]c(=O)c12 [Compound 565] | 100 to 1000
29 | O=c1[nH]c(=O)c2c(CCCOC3CCC3)cc(=O)oc2[nH]1 [Compound 290] | 100 to 1000
30 | O=c1[nH]c(=O)c2c(CCCC3CCC3)cc(=O)oc2[nH]1 [Compound 286] | 0.001 to 100
31 | CCc1cc(=O)oc2nc(OCc3sccc3-n3cccc3)[nH]c(=O)c12 [Compound 533] | > 1000
32 | CCc1cc(=O)oc2nc(OCc3ncccc3C)[nH]c(=O)c12 [Compound 556] | > 1000
33 | CCc1cc(=O)oc2nc(OCc3ccc(C#N)cc3)[nH]c(=O)c12 [Compound 630] | > 1000
34 | C=COCCOc1nc2oc(=O)cc(CC)c2c(=O)[nH]1 [Compound 581] | > 1000
35 | CCc1cc(=O)oc2nc(OCC#CC(C)O)[nH]c(=O)c12 (stereo not drawn) [Compound 644] | 0.001 to 100
36 | CCc1cc(=O)oc2nc(OCc3ccccc3-n3ccnc3C)[nH]c(=O)c12 [Compound 583] | 100 to 1000
37 | CCc1cc(=O)oc2nc(OCc3cc(Br)cs3)[nH]c(=O)c12 [Compound 534] | 100 to 1000
38 | CC(C)(C#N)CCCc1cc(=O)oc2[nH]c(=O)[nH]c(=O)c12 [Compound 288] | > 1000
39 | CCCCc1c(-c2ccccc2)c(=O)oc2[nH]c(=O)[nH]c(=O)c12 [Compound 292] | 100 to 1000
40 | CCc1cc(=O)oc2nc(OCc3ccc(Cl)c(C(F)(F)F)c3)[nH]c(=O)c12 [Compound 521] | 100 to 1000
41 | CCc1cc(=O)oc2nc(OC3CCSCC3)[nH]c(=O)c12 [Compound 605] | > 1000
42 | Cc1cc(=O)oc2[nH]c(=O)n(C3CCC3)c(=O)c12 [Compound 252] | 0.001 to 100
43 | O=c1[nH]c(=O)c2c(C3CC3)cc(=O)oc2[nH]1 [Compound 283] | 100 to 1000
44 | CCc1cc(=O)oc2nc(OCc3cccc(-c4ccccc4Cl)c3)[nH]c(=O)c12 [Compound 564] | 100 to 1000
45 | CC(C)(C)Cc1cc(=O)oc2[nH]c(=O)[nH]c(=O)c12 [Compound 240] | > 1000
46 | CCc1cc(=O)oc2nc(OCCCOc3ccccc3)[nH]c(=O)c12 [Compound 596] | 100 to 1000

Next, values leading:

Row | EC50 [nM] | Compound
47 | > 1000 | CN(C)CCOc1nc2oc(=O)cc(Cc3cccc(F)c3)c2c(=O)[nH]1 [Compound 683]
48 | > 1000 | CCc1cc(=O)oc2nc(OCC(C)(C)S(=O)(=O)c3ccc(Cl)cc3)[nH]c(=O)c12 [Compound 663]
49 | > 1000 | CCc1cc(=O)oc2nc(OCc3conc3C)[nH]c(=O)c12 [Compound 665]
50 | 0.001 to 100 | CCOC(=O)NOc1nc2oc(=O)cc(CCC3CCC3)c2c(=O)[nH]1 [Compound 691]
51 | > 1000 | CCc1cc(=O)oc2nc(OCc3cnoc3C)[nH]c(=O)c12 [Compound 668]
52 | > 1000 | CCCCc1c(-c2ccc(NC(C)=O)cc2)c(=O)oc2[nH]c(=O)[nH]c(=O)c12 [Compound 710]
53 | 100 to 1000 | CCc1cc(=O)oc2nc(OCc3cc(C)nn3C(C)(C)C)[nH]c(=O)c12 [Compound 673]
54 | 0.001 to 100 | CCc1cc(=O)oc2nc(OCCN(C)C)[nH]c(=O)c12 [Compound 652]
55 | 100 to 1000 | CCc1cc(=O)oc2nc(OCC#CC(CC)OC)[nH]c(=O)c12 (stereo not drawn) [Compound 669]
56 | 100 to 1000 | CCOC(=O)NOc1nc2oc(=O)cc(CCC3CC3)c2c(=O)[nH]1 [Compound 696]
57 | > 1000 | CC(=O)Nc1ccc(-c2c(CCC3CCC3)c3c(=O)[nH]c(=O)[nH]c3oc2=O)cc1 [Compound 704]
58 | > 1000 | CCc1cc(=O)oc2nc(OCc3cnco3)[nH]c(=O)c12 [Compound 657]
59 | 100 to 1000 | CCc1cc(=O)oc2nc(OCc3ccccc3-c3ccc(CO[Si](C)(C)C(C)(C)C)cc3)[nH]c(=O)c12 [Compound 651]

Same assay, conditions: NA EC50 camp (nM), CHO cells expressing recombinant human NAR; forskolin-stimulated cAMP

Row | Compound | EC50 [nM]
60 | CCc1cc(=O)oc2nc(OCC#CCO)[nH]c(=O)c12 [Compound 631] | 100 to 1000
61 | CCC#CCOc1nc2oc(=O)cc(CC)c2c(=O)[nH]1 [Compound 512] | 0.001 to 100
62 | CCOCCOc1nc2oc(=O)cc(CC)c2c(=O)[nH]1 [Compound 580] | > 1000
63 | CC#CCCOc1nc2oc(=O)cc(CC)c2c(=O)[nH]1 [Compound 590] | 100 to 1000
64 | CCc1cc(=O)oc2nc(OCC#CCCCO)[nH]c(=O)c12 [Compound 645] | 0.001 to 100
65 | CCCC#CCOc1nc2oc(=O)cc(CC)c2c(=O)[nH]1 [Compound 557] | 0.001 to 100

Same assay, conditions: inhibition of forskolin-stimulated cAMP accumulation, CHO cells expressing recombinant human NAR; read-out: NA EC50 camp

Row | Compound | EC50 [nM]
66 | O=c1[nH]c(=O)c2c(CCC3CCCCC3)cc(=O)oc2[nH]1 [Compound 124] | 78.5
67 | O=c1[nH]c(=O)c2c(CCC3CCCC3)cc(=O)oc2[nH]1 [Compound 125] | 1.2
68 | CCCCc1cc(=O)oc2[nH]c(=O)[nH]c(=O)c12 [Compound 102] | 31
69 | CCCCc1c(-c2ccccc2)c(=O)oc2[nH]c(=O)[nH]c(=O)c12 [Compound 292] | 300
70 | CCc1cc(=O)oc2nc(OC(C)c3ccccc3F)[nH]c(=O)c12 (stereo not drawn) [Compound 90] | 475
71 | O=c1[nH]c(=O)c2c(CC3CCCC3)cc(=O)oc2[nH]1 [Compound 104] | 47

The remaining lines, values ahead:

Row | EC50 [nM] | Compound
72 | > 10000 | COCCn1c(=O)[nH]c2oc(=O)cc(CCC3CC3)c2c1=O [Compound 800]
73 | 9150 | CCCCc1cc(=O)oc2c1c(=O)[nH]c(=O)n2OCC [Compound 778]
74 | 1450 | CCCc1cc(=O)oc2[nH]c(=O)n(CF)c(=O)c12 [Compound 817]
75 | 47.5 | CCOC(=O)NOc1nc2oc(=O)cc(CCC3CCC3)c2c(=O)[nH]1 [Compound 691]
76 | 39 | COn1c(=O)[nH]c2oc(=O)cc(CCC3CCCC3)c2c1=O [Compound 772]
77 | 91 | O=c1nc(OCCF)c2c(CCCC3CC3)cc(=O)oc2[nH]1 [Compound 824]
78 | 152 | CCCCC#CCOc1nc2oc(=O)cc(CCCC3CC3)c2c(=O)[nH]1 [Compound 719]
79 | 286 | CCCCCCc1cc(=O)oc2nc(CF)[nH]c(=O)c12 [Compound 755]
80 | 1070 | CCCCCc1cc(=O)oc2nc(C(F)F)nc(OCc3ccc(OC)cc3)c12 [Compound 742]
81 | 407 | CCCCc1cc(=O)oc2[nH]c(=O)nc(OCC(F)F)c12 [Compound 828]
82 | 690 | CCCCc1cc(=O)oc2[nH]c(=O)nc(OCCF)c12 [Compound 827]
83 | > 10000 | CCCCc1cc(=O)oc2c1c(=O)[nH]c(=O)n2N1CCOCC1 [Compound 796]
84 | 487 | CSCCCc1cc(=O)oc2nc(CF)[nH]c(=O)c12 [Compound 751]
85 | 228 | O=c1cc(CCC2CC2)c2c(=O)[nH]c(CF)nc2o1 [Compound 753]
86 | 682 | CCCCc1cc(=O)oc2[nH]c(=O)nc(OCCOC)c12 [Compound 787]
87 | 71.8 | CCC#CCOc1nc2oc(=O)cc(CCCC)c2c(=O)[nH]1 [Compound 734]
88 | 128 | CCCCCc1cc(=O)oc2nc(CF)[nH]c(=O)c12 [Compound 744]
89 | 384 | CCc1cc(=O)oc2[nH]c(=O)n(OC)c(=O)c12 [Compound 768]
90 | 162 | CCC#CC(C)Oc1nc2oc(=O)cc(CCCC3CC3)c2c(=O)[nH]1 (stereo not drawn) [Compound 718]
